Data as given in PubChem BioAssay (NCI).
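Following 48 hours of exposure in 96-well plates, responses at five concentrations were used to interpolate endpoints linearly. TGI: concentration producing complete growth inhibition.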

What was measured:
Assay in all cases: NCI-60 cell line screen, 48 h
COLO 205 colon = system: COLO 205 colon
MDA-MB-435 = system: MDA-MB-435
CCRF-CEM leukemia = system: CCRF-CEM leukemia
NCI-H522 lung = system: NCI-H522 lung
MOLT-4 leukemia = system: MOLT-4 leukemia
ACHN renal = system: ACHN renal
SK-MEL-28 melanoma = system: SK-MEL-28 melanoma
SN12C renal = system: SN12C renal
PC-3 prostate = system: PC-3 prostate
MCF7 breast = system: MCF7 breast
SNB-19 CNS = system: SNB-19 CNS
HT29 colon = system: HT29 colon
HCC-2998 colon = system: HCC-2998 colon
HOP-62 NSCLC = system: HOP-62 NSCLC
SK-OV-3 ovarian = system: SK-OV-3 ovarian
HOP-92 NSCLC = system: HOP-92 NSCLC
IGROV1 ovarian = system: IGROV1 ovarian
TK-10 renal = system: TK-10 renal
SNB-75 CNS = system: SNB-75 CNS
SR leukemia = system: SR leukemia
OVCAR-3 ovarian = system: OVCAR-3 ovarian
SF-539 CNS = system: SF-539 CNS
NCI-H460 lung = system: NCI-H460 lung
CAKI-1 renal = system: CAKI-1 renal
HL-60(TB) leukemia = system: HL-60(TB) leukemia
UACC-257 melanoma = system: UACC-257 melanoma
RXF 393 renal = system: RXF 393 renal
UACC-62 melanoma = system: UACC-62 melanoma
M14 melanoma = system: M14 melanoma
U251 CNS = system: U251 CNS
A498 renal = system: A498 renal
SF-268 CNS = system: SF-268 CNS
SK-MEL-5 melanoma = system: SK-MEL-5 melanoma
A549 NSCLC = system: A549 NSCLC
DU-145 prostate = system: DU-145 prostate
OVCAR-5 ovarian = system: OVCAR-5 ovarian
KM12 colon = system: KM12 colon
UO-31 renal = system: UO-31 renal
MALME-3M melanoma = system: MALME-3M melanoma
OVCAR-4 ovarian = system: OVCAR-4 ovarian
HCT-15 colon = system: HCT-15 colon
SF-295 CNS = system: SF-295 CNS
OVCAR-8 ovarian = system: OVCAR-8 ovarian
RPMI-8226 leukemia = system: RPMI-8226 leukemia
HS 578T breast = system: HS 578T breast
SW-620 colon = system: SW-620 colon
MDA-N = system: MDA-N
NCI-H23 lung = system: NCI-H23 lung
HCT-116 colon = system: HCT-116 colon
786-0 renal = system: 786-0 renal
BT-549 breast = system: BT-549 breast
EKVX NSCLC = system: EKVX NSCLC
NCI-H226 lung = system: NCI-H226 lung
T-47D breast = system: T-47D breast
NCI/ADR-RES ovarian = system: NCI/ADR-RES ovarian
K-562 leukemia = system: K-562 leukemia
MDA-MB-231 breast = system: MDA-MB-231 breast
LOX IMVI melanoma = system: LOX IMVI melanoma
SK-MEL-2 melanoma = system: SK-MEL-2 melanoma

## CCCCCCCC(=O)N1C2CC3CCC2(CS1(=O)=O)C3(C)C (configuration not stated)
COLO 205 colon
  TGI: 41.2 µM
MDA-MB-435
  TGI: > 100 µM
CCRF-CEM leukemia
  TGI: 44.8 µM
NCI-H522 lung
  TGI: 48.5 µM
MOLT-4 leukemia
  TGI: 35.1 µM
ACHN renal
  TGI: > 100 µM
SK-MEL-28 melanoma
  TGI: > 100 µM
SN12C renal
  TGI: 49.1 µM
PC-3 prostate
  TGI: 69.1 µM
MCF7 breast
  TGI: 35.8 µM
SNB-19 CNS
  TGI: 76.5 µM
HT29 colon
  TGI: > 10 µM
HCC-2998 colon
  TGI: 51.2 µM
HOP-62 NSCLC
  TGI: 44.3 µM
SK-OV-3 ovarian
  TGI: > 100 µM
HOP-92 NSCLC
  TGI: 68 µM
IGROV1 ovarian
  TGI: > 100 µM
TK-10 renal
  TGI: > 100 µM
SNB-75 CNS
  TGI: > 100 µM
SR leukemia
  TGI: 40.8 µM
OVCAR-3 ovarian
  TGI: > 10 µM
SF-539 CNS
  TGI: 41.5 µM
NCI-H460 lung
  TGI: > 100 µM
CAKI-1 renal
  TGI: 61.7 µM
HL-60(TB) leukemia
  TGI: 41.9 µM
UACC-257 melanoma
  TGI: 68.6 µM
RXF 393 renal
  TGI: 31.8 µM
UACC-62 melanoma
  TGI: 55.5 µM
M14 melanoma
  TGI: 41 µM
U251 CNS
  TGI: 69.9 µM
A498 renal
  TGI: > 100 µM
SF-268 CNS
  TGI: > 100 µM
SK-MEL-5 melanoma
  TGI: 34.4 µM
A549 NSCLC
  TGI: > 100 µM
DU-145 prostate
  TGI: > 100 µM
OVCAR-5 ovarian
  TGI: > 100 µM
KM12 colon
  TGI: 74.8 µM
UO-31 renal
  TGI: 52.4 µM
MALME-3M melanoma
  TGI: 34 µM
OVCAR-4 ovarian
  TGI: > 100 µM
HCT-15 colon
  TGI: 26.7 µM
SF-295 CNS
  TGI: 50.8 µM
OVCAR-8 ovarian
  TGI: > 100 µM
RPMI-8226 leukemia
  TGI: 41.5 µM
HS 578T breast
  TGI: > 100 µM
SW-620 colon
  TGI: 61.6 µM
MDA-N
  TGI: 72 µM
NCI-H23 lung
  TGI: > 100 µM
HCT-116 colon
  TGI: > 100 µM
786-0 renal
  TGI: 31.7 µM
BT-549 breast
  TGI: 71.6 µM
EKVX NSCLC
  TGI: > 100 µM

## CCOC(=O)c1nc2ccccc2nc1Oc1ccc(F)cc1
COLO 205 colon
  TGI: > 100 µM
MDA-MB-435
  TGI: > 100 µM
CCRF-CEM leukemia
  TGI: > 100 µM
NCI-H226 lung
  TGI: > 100 µM
ACHN renal
  TGI: > 100 µM
SK-MEL-28 melanoma
  TGI: > 100 µM
SN12C renal
  TGI: > 100 µM
PC-3 prostate
  TGI: > 100 µM
MCF7 breast
  TGI: > 100 µM
SNB-19 CNS
  TGI: > 100 µM
HT29 colon
  TGI: > 100 µM
HOP-62 NSCLC
  TGI: > 100 µM
T-47D breast
  TGI: > 100 µM
SK-OV-3 ovarian
  TGI: > 100 µM
HOP-92 NSCLC
  TGI: > 100 µM
NCI/ADR-RES ovarian
  TGI: > 100 µM
IGROV1 ovarian
  TGI: > 100 µM
TK-10 renal
  TGI: > 100 µM
SNB-75 CNS
  TGI: > 100 µM
OVCAR-3 ovarian
  TGI: > 100 µM
SF-539 CNS
  TGI: > 100 µM
NCI-H460 lung
  TGI: > 100 µM
UACC-257 melanoma
  TGI: > 100 µM
K-562 leukemia
  TGI: > 100 µM
RXF 393 renal
  TGI: > 100 µM
UACC-62 melanoma
  TGI: > 100 µM
MDA-MB-231 breast
  TGI: > 100 µM
M14 melanoma
  TGI: > 100 µM
U251 CNS
  TGI: > 100 µM
A498 renal
  TGI: > 100 µM
SF-268 CNS
  TGI: > 100 µM
LOX IMVI melanoma
  TGI: > 100 µM
SK-MEL-5 melanoma
  TGI: > 100 µM
A549 NSCLC
  TGI: > 100 µM
DU-145 prostate
  TGI: > 100 µM
OVCAR-5 ovarian
  TGI: > 100 µM
KM12 colon
  TGI: > 100 µM
UO-31 renal
  TGI: > 100 µM
HCT-15 colon
  TGI: > 100 µM
SF-295 CNS
  TGI: > 100 µM
OVCAR-8 ovarian
  TGI: > 100 µM
RPMI-8226 leukemia
  TGI: > 100 µM
HS 578T breast
  TGI: > 100 µM
SW-620 colon
  TGI: > 100 µM
MDA-N
  TGI: > 100 µM
HCT-116 colon
  TGI: > 100 µM
786-0 renal
  TGI: > 100 µM
BT-549 breast
  TGI: > 100 µM
SK-MEL-2 melanoma
  TGI: > 100 µM
EKVX NSCLC
  TGI: > 100 µM
